Laboratory results taken from patent US6831199B1, “Pyrimidine compounds and derivatives thereof” (G. D. Searle & Co., priority 1995, dated 2004).
Counter-ions that a name gives are not always drawn.

Biological target: T1, Human vitronectin receptor (αvβ3) (Homo sapiens, UniProt P05106+P06756)
T1 construct: Human vitronectin receptor (αvβ3) was purified from human placenta; from tissue; host or cells: human placenta
Experiment: Vitronectin adhesion assay (solid phase receptor assay, competition with biotinylated vitronectin)
Type: binding
Conditions: read-out: AvB3 IC50
Procedure, shortened: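 Purified human αvβ3 coated overnight at 4 °C in TBS with 1.0 mM Ca++, Mg++, Mn++, pH 7.4; compounds (top final 1.0×10^−4 M) competed with 1 nM biotinylated vitronectin for 2 h at room temperature. Bound ligand detected by HRP anti-biotin/OPD at A450; values normalized to no-competitor controls, four-parameter curve fit.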

`O=C(O)CC(NC(=O)CNC(=O)c1cccc(NC2=NCCC2)c1)c1cccnc1` (stereo not drawn) [Example 17, β-[[2-[[[3-[(3,4-dihydro-2H-pyrrol-5-yl)amino]phenyl]carbonyl]amino]acetyl]amino]pyridine-3-propanoic acid, bis(trifluoroacetate)salt] gave an IC50 of 2.66 nM.

`N=C(N)Nc1cccc(C(=O)NCC(=O)NC(CC(=O)O)c2ccoc2)c1` (racemic) [Example 52, (±)β-[[2-[[[3-[(aminoiminomethyl)amino]phenyl]carbonyl]amino]acetyl]amino]furan-3-propanoic acid, trifluoroacetate salt] gave an IC50 of 3.62 nM.

Molecule `N=C(N)Nc1cccc(C(=O)NCC(=O)NC(CC(=O)O)c2cccs2)c1` (racemic) [Example 61, (±)β-[[2-[[[3-[(aminoiminomethyl)amino]phenyl]carbonyl]amino]acetyl]amino]thiophene-2-propanoic acid, trifluoroacetate salt] has an IC50 of 1.76 nM.

`Cc1ccc(O)c(C(CC(=O)O)NC(=O)CNC(=O)c2cccc(NC(=N)N)c2)c1` (racemic) [Example 88, (±)β-[[2-[[[3-[(aminoiminomethyl)amino]phenyl]carbonyl]amino]acetyl]amino]-2-hydroxy-5-methylbenzenepropanoic acid, trifluoroacetate salt] gave an IC50 of 8.44 nM.

`O=C(O)CC(NC(=O)CNC(=O)c1cccc(NC2=NCCN2)c1)c1cccnc1` (racemic) [Example 10, (±)β-[[2-[[[3-[(4,5-dihydro-1H-imidazol-2-yl)amino]phenyl]carbonyl]amino]acetyl]amino]pyridine-3-propanoic acid, bis(trifluoroacetate)salt] gave an IC50 of 0.92 nM.

For `N=C(N)Nc1cccc(C(=O)NCC(=O)N[C@@H](CC(=O)O)CS(=O)(=O)c2ccccc2C(=O)O)c1` [Example 71, 2-[[2S-[[2-[[[3-[(aminoiminomethyl)amino]phenyl]carbonyl]amino]acetyl]amino]-2-(carboxymethyl)ethyl]sulfonyl]benzoic acid, TFA salt], the IC50 was 20.4 nM.

Molecule `Cc1ccc(S(=O)(=O)NCC(CC(=O)O)NC(=O)CNC(=O)c2cccc(NC(=N)N)c2)cc1` (stereo not drawn) [Example 65, 3-[[2-[[[3-[(aminoiminomethyl)amino]phenyl]carbonyl]amino]acetyl]amino]-4-[[(4-methylphenyl)sulfonyl]amino]butanoic acid, trifluoroacetate salt] has an IC50 of 9.7 nM.

`N=C(N)Nc1cccc(C(=O)NCC(=O)NC(CC(=O)O)c2cnc3ccccc3c2)c1` (stereo not drawn) [Example 99, β-[[2-[[[3-[(aminoiminomethyl)amino]phenyl]carbonyl]amino]acetyl]amino]quinoline-3-propanoic acid, bis(trifluoroacetate)salt] was tested, and the IC50 was 0.38 nM.

`C#C[C@H](CC(=O)O)NC(=O)CNC(=O)c1cccc(NC2=NCCCCC2)c1` [Example 30, βS-[[2-[[[3-[(3,4,5,6-tetrahydro-2H-azepin-7-yl)amino]phenyl]carbonyl]amino]acetyl]amino]-4-pentynoic acid, trifluoroacetate salt] showed an IC50 of 1.75 nM.

With `O=C(O)CC(NC(=O)CNC(=O)c1cccc(NC(=O)NCc2ccccc2)c1)c1cccnc1` (racemic) [Example 47, (±)β-[[2-[[[3-[[[(phenylmethyl)amino]carbonyl]amino]phenyl]carbonyl]amino]acetyl]amino]pyridine-3-propanoic acid, hydrochloride salt] the IC50 was 0.86 nM.

`N=C(N)Nc1cc(C(=O)NCC(=O)NC(CC(=O)O)c2cccnc2)c2ccccc2c1` (racemic) [Example 8, (±)β-[[2-[[[3-[(aminoiminomethyl)amino]naphthalen-1-yl]carbonyl]amino]acetyl]amino]pyridine-3-propanoic acid, bis(trifluoroacetate)salt] gave an IC50 of 0.69 nM.

Molecule `Cc1ccc(S(=O)(=O)CCC(CC(=O)O)NC(=O)CNC(=O)c2cccc(NC(=N)N)c2)cc1` (racemic) [Example 67, (±)3-[[2-[[[3-[(aminoiminomethyl)amino]phenyl]carbonyl]amino]acetyl]amino]-5-[(4-methylphenyl)sulfonyl]pentanoic acid, trifluoroacetate salt] has an IC50 of 2.05 nM.

`C#C[C@@H](CC(=O)O)NC(=O)CNC(=O)c1cccc(NC(=N)N)c1` [Example 43, 3R-[[2-[[[(3-[(aminoiminomethyl)amino]phenyl]carbonyl]amino]acetyl]amino]-4-pentynoic acid, hydrochloride salt] was tested, and the IC50 was 28.3 nM.

`O=C(O)CC(NC(=O)CNC(=O)c1cccc(NC2=NCCCCC2)c1)c1ccc2c(c1)OCO2` (racemic) [Example 14, (±)β-[[2-[[[3-[(3,4,5,6-tetrahydro-2H-azepin-7-yl)amino]phenyl]carbonyl]amino]acetyl]amino]-1,3-benzodioxole-5-propanoic acid, TFA salt] was tested, and the IC50 was 1.62 nM.

Molecule `N=C(N)Nc1cccc(C(=O)NCC(=O)NC(CC(=O)O)c2ccccc2)c1` (racemic) [Example 4, (±)β-[[2-[[[3-[(aminoiminomethyl)amino]phenyl]carbonyl]amino]acetyl]amino]benzene-propanoic acid, trifluoroacetate salt] has an IC50 of 3.17 nM.

`Cc1ccc(SCCC(CC(=O)O)NC(=O)CNC(=O)c2cccc(NC(=N)N)c2)cc1` (racemic) [Example 66, (±)3-[[2-[[[3-[(aminoiminomethyl)amino]phenyl]carbonyl]amino]acetyl]amino]-5-[(4-methylphenyl)thio]pentanoic acid, trifluoroacetate salt] gave an IC50 of 1.44 nM.

`N=C(N)Nc1cccc(C(=O)NCC(=O)NC(CCS(=O)(=O)c2ccccc2C(=O)O)CC(=O)O)c1` (racemic) [60(C), (±)2-[3-[[2-[[[3-[(aminoiminomethyl)amino]phenyl]carbonyl]amino]acetyl]amino]-4-carboxybutyl]sulfonyl]benzoic acid, trifluoroacetate] showed an IC50 of 0.73 nM.

Work on `N=C(N)Nc1cccc(C(=O)NCC(=O)NC(CC(=O)O)c2cc(C(F)(F)F)cc(C(F)(F)F)c2)c1` (racemic) [Example 36, (±)β-[[2-[[[3-[(aminoiminomethyl)amino]phenyl]carbonyl]amino]acetyl]amino]-3,5-bis(trifluoromethyl)benzenepropanoic acid, trifluoroacetate salt] yielded an IC50 of 14.6 nM.

Molecule `O=C(O)CC(NC(=O)CNC(=O)c1cccc(NC2=NCCCCC2)c1)c1ccccc1` (racemic) [Example 15, (±)β-[[2-[[[3-[(3,4,5,6-tetrahydro-2H-azepin-7-yl)amino]phenyl]carbonyl]amino]acetyl]amino]benzenepropanoic acid, trifluoroacetate salt] has an IC50 of 10.2 nM.

In the case of `NC(=S)Nc1cccc(C(=O)NCC(=O)NC(CC(=O)O)c2cccnc2)c1` (stereo not drawn) [Example 114, β-[[2-[[[3-[(aminothioxomethyl)amino]phenyl]carbonyl]amino]acetyl]amino]pyridine-3-propanoic acid, trifluoroacetate salt], the IC50 is reported as 3.26 nM.

In the case of `O=C(O)CC(NC(=O)CNC(=O)c1cccc(NC2=NCCCCC2)c1)c1cccnc1` (racemic) [Example 12, (±)β-[[2-[[[3-[(3,4,5,6-tetrahydro-2H-azepin-7-yl)amino]phenyl]carbonyl]amino]acetyl]amino]pyridine-3-propanoic acid, bis(trifluoroacetate)salt], the IC50 is reported as 1.1 nM.

`C#C[C@H](CC(=O)O)NC(=O)CNC(=O)c1cccc(NC(=N)N)c1` [Example 45, 3S-[[2-[[[3-[(aminoiminomethyl)amino]phenyl]carbonyl]amino]acetyl]amino]-4-pentynoic acid, hydrochloride salt] was tested, and the IC50 was 0.69 nM.

`NC(=O)Nc1cccc(C(=O)NCC(=O)NC(CC(=O)O)c2cccnc2)c1` (stereo not drawn) [Example 46, β-[[2-[[[3-(aminocarbonylamino)phenyl]carbonyl]amino]acetyl]amino]pyridine-3-propanoic acid, hydrochloride salt] was tested, and the IC50 was 5.34 nM.

`N=C(NCc1ccccc1)Nc1cccc(C(=O)NCC(=O)NC(CC(=O)O)c2cccnc2)c1` (racemic) [Example 24, (±)β-[[2-[[[3-[[imino[(phenylmethyl)amino]methyl]amino]phenyl]carbonyl]amino]acetyl]amino]pyridine-3-propanoic acid, bis(trifluoroacetate)salt] gave an IC50 of 0.91 nM.

For `Cc1ccc(C(=O)NCC(=O)NC(CC(=O)O)c2cccnc2)cc1NC(=N)N` (racemic) [Example 83, (±)β-[[2-[[[3-[(aminoiminomethyl)amino]-4-methylphenyl]carbonyl]amino]acetyl]amino]pyridine-3-propanoic acid, bis(trifluoroacetate)salt], the IC50 was 3.39 nM.

Molecule `N=C(N)Nc1cccc(C(=O)NCC(=O)NC(CC(=O)O)c2ccc3ccccc3c2)c1` (racemic) [Example 56, (±)β-[[2-[[[3-[(aminoiminomethyl)amino]phenyl]carbonyl]amino]acetyl]amino]naphthalene-2-propanoic acid, trifluoroacetate salt] has an IC50 of 3.12 nM.

`N=C(N)Nc1cccc(C(=O)NCC(=O)NC(CC(=O)O)c2ccsc2)c1` (racemic) [Example 59, (±)β-[[2-[[[3-[(aminoiminomethyl)amino]phenyl]carbonyl]amino]acetyl]amino]thiophene-3-propanoic acid, trifluoroacetate salt] was tested, and the IC50 was 2.35 nM.
